Measured values: PMC8313282 (Microbial Biotechnology, 2021)

Biological target: T1, YHR112C (Saccharomyces cerevisiae, UniProt P38716)
T1 sequence (P38716 1-378): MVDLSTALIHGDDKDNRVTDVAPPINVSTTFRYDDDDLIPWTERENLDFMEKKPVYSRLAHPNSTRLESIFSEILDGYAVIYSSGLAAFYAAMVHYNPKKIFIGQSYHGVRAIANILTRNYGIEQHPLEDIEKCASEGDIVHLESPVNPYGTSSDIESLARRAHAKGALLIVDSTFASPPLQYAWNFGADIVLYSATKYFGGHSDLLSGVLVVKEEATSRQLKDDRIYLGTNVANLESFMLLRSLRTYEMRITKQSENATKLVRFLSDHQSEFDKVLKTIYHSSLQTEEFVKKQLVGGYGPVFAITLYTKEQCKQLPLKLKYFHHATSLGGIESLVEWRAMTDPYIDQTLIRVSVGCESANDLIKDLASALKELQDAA
Assay: HPLC of L-Met depletion and alpha-ketobutyrate
Assay type: biochemical
Details: 50 mM Tris-HCl pH 8.0; 20 mM L-Met; 5 μM PLP; 30°C; 1 h; weak activity

## CSCC[C@H](N)C(=O)O [L‐Met]
  HPLC of L-Met depletion and alpha-ketobutyrate: while weak changes were observed for YHR112C
